Series [1] concerns HCT-116 human colorectal cancer cell line. Briefly: IC50 in HCT-116 human colorectal cancer cell line. The conditions noted are these: for IC50: Homo sapiens. Format: cell-based. The procedure: Each of the cryptophycin analogs was assessed using a zone assay as a relative comparison of potency over a variety of cell lines (see Table 1), and the IC50 for each analog was determined in the HCT-116 human colorectal cancer cell line.

For series [2], the system named is platinum-resistant ovarian cancer. As to conditions: cited from earlier work.

Structures are written as SMILES.

In turn, `COc1ccc(C[C@H]2NC(=O)/C=C/C[C@@H]([C@H](C)/C=C/c3ccccn3)OC(=O)[C@H](CC(C)C)OC(=O)[C@H](C)CNC2=O)cc1Cl` [2 pyridyl, (3S,6R,10R,16S,E)-10-(3-chloro-4-methoxybenzyl)-3-isobutyl-6-methyl-16-((R,E)-4-(pyridin-2-yl)but-3-en-2-yl)-1,4-dioxa-8,11-diazacyclohexadec-13-ene-2,5,9,12-tetraone] registered an IC50 in series [1] of 102 nM.

Regarding `COc1ccc(C[C@H]2NC(=O)/C=C/C[C@@H]([C@H](C)/C=C/c3cccnc3)OC(=O)[C@H](CC(C)C)OC(=O)[C@H](C)CNC2=O)cc1Cl` [3 pyridyl, (3S,6R,10R,16S,E)-10-(3-chloro-4-methoxybenzyl)-3-isobutyl-6-methyl-16-((R,E)-4-(pyridin-3-yl)but-3-en-2-yl)-1,4-dioxa-8,11-diazacyclohexadec-13-ene-2,5,9,12-tetraone], in series [1], the IC50 came out at 0.86 nM. Regarding `COc1ccc(C[C@H]2NC(=O)/C=C/C[C@@H]([C@H](C)/C=C/c3cnn(C)c3)OC(=O)[C@H](CC(C)C)OC(=O)[C@H](C)CNC2=O)cc1Cl` [4 methyl pyrazole, (3S,6R,10R,16S,E)-10-(3-chloro-4-methoxybenzyl)-3-isobutyl-6-methyl-16-((R,E)-4-(1-methyl-1H-pyrazol-4-yl)but-3-en-2-yl)-1,4-dioxa-8,11-diazacyclohexadec-13-ene-2,5,9,12-tetraone], the potency in words result in series [1] is reported as “low pico-molar”. In turn, `COc1ccc(C[C@H]2NC(=O)/C=C/C[C@@H]([C@H](C)/C=C/c3ccncc3)OC(=O)[C@H](CC(C)C)OC(=O)[C@H](C)CNC2=O)cc1Cl` [4 pyridyl, (3S,6R,10R,16S,E)-10-(3-chloro-4-methoxybenzyl)-3-isobutyl-6-methyl-16-((R,E)-4-(pyridin-4-yl)but-3-en-2-yl)-1,4-dioxa-8,11-diazacyclohexadec-13-ene-2,5,9,12-tetraone] displayed an IC50 in series [1] of 0.51 nM. As for `COc1ccc(C[C@H]2NC(=O)/C=C/C[C@@H]([C@H](C)[C@H]3O[C@@H]3c3ccccc3)OC(=O)[C@H](CC(C)C)OC(=O)C(C)(C)CNC2=O)cc1Cl` [cryptophycin 52], the dose-limiting toxicity result in series [2] (clinical trials) is “dose-limiting peripheral neuropathy”. Further, the clinical outcome in series [2] (platinum-resistant ovarian cancer) is on record as “significant disease stabilization”.

Broadly, the IC50 is the concentration needed to halve the response being measured. Low values mean inhibition by little substance, high ones a need for much substance.
